{
  "source": "patent US7361675B2",
  "about": "“1,2,4-thiadiazole compounds and use thereof” (Sumitomo Chemical Company Limited, priority 2002, dated 2008)",
  "key": {"[1]": {"tested_on": "silverleaf whitefly (Bemisia argentifolii)", "assay": "Test Example 3: silverleaf whitefly on cabbage (foliar scattering)", "type": "in vivo", "conditions": "168 h, 20 ml/cup on cabbage 8 days after egg laying, seven days after scattering, read-out: insecticidal rate", "procedure": "A preparation prepared from each of the compounds (1), (2), (5), (6), (8), (9), (16), (77) and (78) of the present invention and the comparative compound (A) according to Formulation Example 5 was diluted with water so that the concentration of the compound of the present invention became 500 ppm to obtain a test scattering solution.\nOn the other hand, soil was filled in polyethylene cups, cabbage was planted in each cup, and grown until its first foliage leaves developed, and leaves other than a first foliage leaves were removed. About 200 imagoes of silverleaf whitefly (Bemisia argentifolii) were released on this cabbage for about 24 hours, and had them lay eggs on the cabbage first foliage leaf.\nThe thus obtained cabbage on which about 80 to 100 eggs of silverleaf whitefly (Bemisia argentifolii) were laid was allowed to stand in a greenhouse for 8 days, and the aforementioned test scattering solution was scattered at a ratio of 20 ml/cup. Seven days after scattering, the number of alive insects was examined, and an insecticidal rate was calculated."}, "[2]": {"tested_on": "western flower thrips (Frankliniella occidentalis)", "assay": "Test Example 2: western flower thrips damage on treated cucumber leaf", "type": "in vivo", "conditions": "500 ppm, 20 ml/cup on cucumber, cut first foliage leaf, 30 larvae, after seven days", "procedure": "A preparation prepared from each of the compound (1) of the present invention and a comparative compound (A) according to Formulation Example 5 was diluted with water so that the concentration of the compound of the present invention became 500 ppm to obtain a test scattering solution. On the other hand, soil was filled into polyethylene cups, cucumber was planted in each cup, and grown until its first foliage leaves developed. The aforementioned test scattering solution was scattered on the cucumber at a ratio of 20 ml/cup, and the scattered solution on the surface of the leaf was dried. The first foliage leaf was cut off, placed on a filter (diameter 70 mm) impregnated with water in a polyethylene cup (diameter 110 mm), 30 larvae of western flower thrips (Frankliniella occidentalis) were released thereon, and the polyethylene cup was closed with a lid. After seven days, a damage degree of the cucumber leaf by western flower thrips (Frankliniella occidentalis) was examined."}},
  "data": [
    {"smiles": "C#CCOc1nnc(-c2ccccc2)s1", "note": "[comparative compound (A), reference compound]", "values": [
      {"measurement": "pest or weed control at 500 ppm", "setting": "[1]", "result": "≤ 30", "unit": "%"},
      {"measurement": "damage area rate by western flower thrips in the treated leaf", "setting": "[2]", "result": "≥ 20", "unit": "%"}
    ]},
    {"smiles": "CCC#CCOc1nsc(-c2ccccc2Cl)n1", "note": "[compound (77), 5-(2-chlorophenyl)-3-(2-pentynyloxy)-1,2,4-thiadiazole]", "values": [
      {"measurement": "pest or weed control at 500 ppm", "setting": "[1]", "result": "≥ 90", "unit": "%"}
    ]},
    {"smiles": "CC#CCOc1nsc(-c2ccccc2)n1", "note": "[compound (2), 5-phenyl-3-(2-butynyloxy)-1,2,4-thiadiazole]", "values": [
      {"measurement": "pest or weed control at 500 ppm", "setting": "[1]", "result": "≥ 90", "unit": "%"},
      {"measurement": "melting point", "result": 70.3, "unit": "°C"}
    ]},
    {"smiles": "CCC#CCOc1nsc(-c2cccc(Cl)c2)n1", "note": "[compound (78), 5-(3-chlorophenyl)-3-(2-pentynyloxy)-1,2,4-thiadiazole]", "values": [
      {"measurement": "pest or weed control at 500 ppm", "setting": "[1]", "result": "≥ 90", "unit": "%"}
    ]},
    {"smiles": "CC#CCOc1nsc(-c2ccccc2F)n1", "note": "[compound (5), 5-(2-fluorophenyl)-3-(2-butynyloxy)-1,2,4-thiadiazole]", "values": [
      {"measurement": "pest or weed control at 500 ppm", "setting": "[1]", "result": "≥ 90", "unit": "%"}
    ]},
    {"smiles": "CC#CCOc1nsc(-c2cccc(F)c2)n1", "note": "[compound (6), 5-(3-fluorophenyl)-3-(2-butynyloxy)-1,2,4-thiadiazole]", "values": [
      {"measurement": "pest or weed control at 500 ppm", "setting": "[1]", "result": "≥ 90", "unit": "%"},
      {"measurement": "melting point", "result": 68.7, "unit": "°C"}
    ]},
    {"smiles": "CC#CCOc1nsc(-c2cccc(Cl)c2)n1", "note": "[compound (9), 5-(3-chlorophenyl)-3-(2-butynyloxy)-1,2,4-thiadiazole]", "values": [
      {"measurement": "pest or weed control at 500 ppm", "setting": "[1]", "result": "≥ 90", "unit": "%"}
    ]},
    {"smiles": "CC#CCOc1nsc(-c2cccc(F)c2F)n1", "note": "[compound (16), 5-(2,3-difluorophenyl)-3-(2-butynyloxy)-1,2,4-thiadiazole]", "values": [
      {"measurement": "pest or weed control at 500 ppm", "setting": "[1]", "result": "≥ 90", "unit": "%"}
    ]},
    {"smiles": "C#CCOc1nsc(-c2ccccc2)n1", "note": "[compound (1), 5-phenyl-3-propargyloxy-1,2,4-thiadiazole]", "values": [
      {"measurement": "pest or weed control at 500 ppm", "setting": "[1]", "result": "≥ 90", "unit": "%"},
      {"measurement": "melting point", "result": 66.9, "unit": "°C"},
      {"measurement": "damage area rate by western flower thrips in the treated leaf", "setting": "[2]", "result": "≤ 5", "unit": "%"}
    ]},
    {"smiles": "CC#CCOc1nsc(-c2ccccc2Cl)n1", "note": "[compound (8), 5-(2-chlorophenyl)-3-(2-butynyloxy)-1,2,4-thiadiazole]", "values": [
      {"measurement": "pest or weed control at 500 ppm", "setting": "[1]", "result": "≥ 90", "unit": "%"}
    ]}
  ]
}
